Measurements reported in ChEMBL document CHEMBL4507268 (2021).

Experiments:
Details in all cases: Compound concentration 1.0 uM
[1] = molecular target: Mitogen-activated protein kinase 14 (Homo sapiens) (UniProt Q16539)
[2] = molecular target: T1, NUAK family SNF1-like kinase 1 (Homo sapiens) (UniProt O60285)
T1 sequence (whole entry): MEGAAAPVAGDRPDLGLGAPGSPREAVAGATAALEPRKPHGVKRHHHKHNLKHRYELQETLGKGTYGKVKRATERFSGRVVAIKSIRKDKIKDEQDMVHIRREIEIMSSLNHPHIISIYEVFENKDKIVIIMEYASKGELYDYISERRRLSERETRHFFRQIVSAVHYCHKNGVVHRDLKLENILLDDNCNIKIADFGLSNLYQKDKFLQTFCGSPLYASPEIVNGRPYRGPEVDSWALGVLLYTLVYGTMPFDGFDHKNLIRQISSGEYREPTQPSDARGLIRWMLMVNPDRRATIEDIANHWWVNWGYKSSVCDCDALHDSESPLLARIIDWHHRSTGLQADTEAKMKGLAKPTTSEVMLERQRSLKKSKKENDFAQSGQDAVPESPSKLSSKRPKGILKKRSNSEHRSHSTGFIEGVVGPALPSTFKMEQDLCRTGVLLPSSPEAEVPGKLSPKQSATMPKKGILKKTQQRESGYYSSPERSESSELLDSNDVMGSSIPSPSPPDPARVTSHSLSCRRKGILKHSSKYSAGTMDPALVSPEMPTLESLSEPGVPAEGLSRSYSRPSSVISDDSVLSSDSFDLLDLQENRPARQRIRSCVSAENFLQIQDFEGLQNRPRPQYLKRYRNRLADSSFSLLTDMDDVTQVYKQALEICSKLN

[3] = molecular target: 5'-AMP-activated protein kinase catalytic subunit alpha-1 (Homo sapiens) (UniProt Q13131)
Chain of 5'-AMP-activated protein kinase catalytic subunit alpha-1 (Homo sapiens) (Q13131 whole entry, looked up): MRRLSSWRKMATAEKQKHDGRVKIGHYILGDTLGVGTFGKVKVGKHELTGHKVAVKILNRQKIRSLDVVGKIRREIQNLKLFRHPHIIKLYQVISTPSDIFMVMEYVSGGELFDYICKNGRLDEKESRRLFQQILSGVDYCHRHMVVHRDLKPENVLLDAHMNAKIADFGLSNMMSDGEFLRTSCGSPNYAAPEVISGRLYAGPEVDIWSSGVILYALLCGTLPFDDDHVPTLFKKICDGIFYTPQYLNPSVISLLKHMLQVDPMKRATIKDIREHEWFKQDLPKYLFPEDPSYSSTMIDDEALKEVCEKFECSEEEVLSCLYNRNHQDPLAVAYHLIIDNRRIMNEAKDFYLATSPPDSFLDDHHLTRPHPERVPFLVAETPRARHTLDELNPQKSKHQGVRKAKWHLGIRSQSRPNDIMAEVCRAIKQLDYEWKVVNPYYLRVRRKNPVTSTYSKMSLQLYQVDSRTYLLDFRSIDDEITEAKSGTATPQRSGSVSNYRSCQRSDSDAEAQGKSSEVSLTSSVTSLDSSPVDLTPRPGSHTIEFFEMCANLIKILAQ

[4] = molecular target: CDK12/Cyclin K (Homo sapiens) (UniProt O75909+Q9NYV4)
Chain of CDK12/Cyclin K (Homo sapiens) (O75909 whole entry, looked up): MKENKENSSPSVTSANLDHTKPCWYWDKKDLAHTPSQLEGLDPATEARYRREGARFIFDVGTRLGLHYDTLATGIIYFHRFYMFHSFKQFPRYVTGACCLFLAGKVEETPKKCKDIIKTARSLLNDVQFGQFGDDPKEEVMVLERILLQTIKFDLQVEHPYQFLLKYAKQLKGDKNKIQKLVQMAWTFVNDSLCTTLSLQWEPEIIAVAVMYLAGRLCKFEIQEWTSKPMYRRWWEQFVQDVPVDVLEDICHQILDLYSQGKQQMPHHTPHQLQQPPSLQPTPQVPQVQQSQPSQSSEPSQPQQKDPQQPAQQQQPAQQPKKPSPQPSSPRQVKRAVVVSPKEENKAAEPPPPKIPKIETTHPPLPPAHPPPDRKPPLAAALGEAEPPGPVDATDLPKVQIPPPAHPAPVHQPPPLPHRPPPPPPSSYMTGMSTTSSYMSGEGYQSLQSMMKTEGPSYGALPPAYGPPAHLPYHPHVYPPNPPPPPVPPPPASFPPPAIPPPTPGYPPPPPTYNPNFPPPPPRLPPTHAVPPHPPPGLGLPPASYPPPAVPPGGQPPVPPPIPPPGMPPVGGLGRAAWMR
Chain of CDK12/Cyclin K (Homo sapiens) (Q9NYV4 whole entry, looked up): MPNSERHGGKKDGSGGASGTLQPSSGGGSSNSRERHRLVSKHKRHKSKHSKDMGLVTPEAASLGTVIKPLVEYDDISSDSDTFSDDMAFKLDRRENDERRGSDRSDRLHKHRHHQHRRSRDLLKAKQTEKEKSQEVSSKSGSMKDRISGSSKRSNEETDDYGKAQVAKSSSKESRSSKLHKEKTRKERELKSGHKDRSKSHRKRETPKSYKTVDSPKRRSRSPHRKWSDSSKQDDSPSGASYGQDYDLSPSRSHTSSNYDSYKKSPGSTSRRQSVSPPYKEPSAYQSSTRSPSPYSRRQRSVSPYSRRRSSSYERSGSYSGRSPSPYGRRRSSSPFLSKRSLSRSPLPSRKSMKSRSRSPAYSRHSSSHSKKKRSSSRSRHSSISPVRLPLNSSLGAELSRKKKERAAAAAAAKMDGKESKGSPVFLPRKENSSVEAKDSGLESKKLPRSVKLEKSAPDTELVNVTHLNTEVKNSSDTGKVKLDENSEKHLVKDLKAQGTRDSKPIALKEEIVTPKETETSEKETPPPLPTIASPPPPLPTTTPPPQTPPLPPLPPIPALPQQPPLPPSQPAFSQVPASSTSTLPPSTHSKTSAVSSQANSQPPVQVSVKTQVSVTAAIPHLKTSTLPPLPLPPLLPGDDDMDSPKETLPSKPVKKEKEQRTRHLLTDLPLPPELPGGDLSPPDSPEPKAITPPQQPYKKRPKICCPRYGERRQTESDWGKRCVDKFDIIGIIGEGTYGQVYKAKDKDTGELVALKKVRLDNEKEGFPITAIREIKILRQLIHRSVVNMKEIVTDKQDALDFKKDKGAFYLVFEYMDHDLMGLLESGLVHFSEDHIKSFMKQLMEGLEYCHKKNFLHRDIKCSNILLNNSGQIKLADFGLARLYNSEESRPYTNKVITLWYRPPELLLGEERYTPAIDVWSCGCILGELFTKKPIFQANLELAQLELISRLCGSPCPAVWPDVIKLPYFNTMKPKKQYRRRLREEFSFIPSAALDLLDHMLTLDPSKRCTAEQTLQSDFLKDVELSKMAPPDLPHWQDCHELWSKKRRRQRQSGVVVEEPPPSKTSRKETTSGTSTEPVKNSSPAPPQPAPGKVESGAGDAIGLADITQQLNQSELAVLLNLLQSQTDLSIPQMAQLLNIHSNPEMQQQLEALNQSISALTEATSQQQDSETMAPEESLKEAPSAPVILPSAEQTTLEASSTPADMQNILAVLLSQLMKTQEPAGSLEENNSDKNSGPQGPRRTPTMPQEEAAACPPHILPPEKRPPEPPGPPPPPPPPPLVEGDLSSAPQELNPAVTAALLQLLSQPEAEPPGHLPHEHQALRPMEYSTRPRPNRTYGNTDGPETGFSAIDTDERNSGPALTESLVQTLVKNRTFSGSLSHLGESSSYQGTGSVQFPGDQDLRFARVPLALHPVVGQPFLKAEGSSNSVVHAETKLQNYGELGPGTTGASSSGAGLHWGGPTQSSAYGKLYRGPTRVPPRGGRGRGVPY

[5] = molecular target: Interferon-induced, double-stranded RNA-activated protein kinase (Homo sapiens) (UniProt P19525)
[6] = molecular target: Serine/threonine-protein kinase VRK2 (Homo sapiens) (UniProt Q86Y07)
Chain of Serine/threonine-protein kinase VRK2 (Homo sapiens) (Q86Y07 whole entry, canonical isoform): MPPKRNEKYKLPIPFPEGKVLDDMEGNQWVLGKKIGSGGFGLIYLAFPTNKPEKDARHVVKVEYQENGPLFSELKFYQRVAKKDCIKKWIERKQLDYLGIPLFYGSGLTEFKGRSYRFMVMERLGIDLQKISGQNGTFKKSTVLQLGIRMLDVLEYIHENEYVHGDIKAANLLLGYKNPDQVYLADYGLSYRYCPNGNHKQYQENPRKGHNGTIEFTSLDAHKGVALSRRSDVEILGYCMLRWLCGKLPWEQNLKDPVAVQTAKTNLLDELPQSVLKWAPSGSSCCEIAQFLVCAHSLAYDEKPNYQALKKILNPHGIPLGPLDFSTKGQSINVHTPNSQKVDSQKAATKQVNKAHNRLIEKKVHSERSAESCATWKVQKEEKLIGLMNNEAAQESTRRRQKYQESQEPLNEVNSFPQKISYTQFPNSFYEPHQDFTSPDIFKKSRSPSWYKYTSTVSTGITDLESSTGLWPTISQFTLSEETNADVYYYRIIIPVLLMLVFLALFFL

[7] = molecular target: Phosphorylase b kinase gamma catalytic chain, skeletal muscle/heart isoform (Homo sapiens) (UniProt Q16816)
[8] = molecular target: T2, Mitogen-activated protein kinase 12 (Homo sapiens) (UniProt P53778)
T2 sequence (whole entry): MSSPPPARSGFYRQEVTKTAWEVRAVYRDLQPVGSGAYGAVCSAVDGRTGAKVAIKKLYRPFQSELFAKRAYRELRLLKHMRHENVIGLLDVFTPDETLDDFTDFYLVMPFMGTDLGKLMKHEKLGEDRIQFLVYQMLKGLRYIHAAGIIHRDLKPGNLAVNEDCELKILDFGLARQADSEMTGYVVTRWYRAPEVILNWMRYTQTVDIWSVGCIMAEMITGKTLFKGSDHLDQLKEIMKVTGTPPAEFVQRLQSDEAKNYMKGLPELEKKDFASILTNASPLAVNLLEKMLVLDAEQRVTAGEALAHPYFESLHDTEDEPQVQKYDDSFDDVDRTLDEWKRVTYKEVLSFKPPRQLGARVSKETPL

[9] = molecular target: Tyrosine-protein kinase ABL2 (Homo sapiens) (UniProt P42684)
[10] = molecular target: PAS domain-containing serine/threonine-protein kinase (Homo sapiens) (UniProt Q96RG2)
[11] = molecular target: Ribosomal protein S6 kinase alpha-6 (Homo sapiens) (UniProt Q9UK32)
[12] = molecular target: Insulin receptor (Homo sapiens) (UniProt P06213)
[13] = molecular target: Vascular endothelial growth factor receptor 2 (Homo sapiens) (UniProt P35968)
[14] = molecular target: T3, Ephrin type-A receptor 1 (Homo sapiens) (UniProt P21709)
T3 sequence (whole entry): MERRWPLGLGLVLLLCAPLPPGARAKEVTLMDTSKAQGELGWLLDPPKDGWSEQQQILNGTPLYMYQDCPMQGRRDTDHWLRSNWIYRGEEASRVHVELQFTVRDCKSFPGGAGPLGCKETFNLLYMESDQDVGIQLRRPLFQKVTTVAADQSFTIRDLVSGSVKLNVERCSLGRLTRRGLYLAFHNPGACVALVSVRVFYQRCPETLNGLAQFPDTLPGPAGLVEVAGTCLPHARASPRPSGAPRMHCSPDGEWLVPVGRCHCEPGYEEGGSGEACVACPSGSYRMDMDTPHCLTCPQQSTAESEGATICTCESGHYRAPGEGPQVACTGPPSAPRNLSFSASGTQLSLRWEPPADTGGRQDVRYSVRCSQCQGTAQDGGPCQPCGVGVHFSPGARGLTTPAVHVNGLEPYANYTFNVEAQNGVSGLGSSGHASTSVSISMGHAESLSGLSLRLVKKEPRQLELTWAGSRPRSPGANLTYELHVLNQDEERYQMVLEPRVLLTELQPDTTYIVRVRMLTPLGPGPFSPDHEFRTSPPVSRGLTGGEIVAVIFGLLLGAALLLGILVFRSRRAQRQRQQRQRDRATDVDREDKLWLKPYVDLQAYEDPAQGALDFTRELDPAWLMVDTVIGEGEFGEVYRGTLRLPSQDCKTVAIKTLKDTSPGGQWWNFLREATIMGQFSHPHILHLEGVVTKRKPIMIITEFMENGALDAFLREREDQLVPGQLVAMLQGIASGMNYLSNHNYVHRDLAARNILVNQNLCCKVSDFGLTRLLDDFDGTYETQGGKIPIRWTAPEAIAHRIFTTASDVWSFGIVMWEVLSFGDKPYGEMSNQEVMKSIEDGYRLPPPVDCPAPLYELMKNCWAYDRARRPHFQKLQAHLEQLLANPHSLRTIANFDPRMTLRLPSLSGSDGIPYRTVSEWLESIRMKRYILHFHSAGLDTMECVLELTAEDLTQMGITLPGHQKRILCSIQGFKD

[15] = molecular target: TRAF2 and NCK-interacting protein kinase (Homo sapiens) (UniProt Q9UKE5)
Chain of TRAF2 and NCK-interacting protein kinase (Homo sapiens) (Q9UKE5 whole entry, looked up): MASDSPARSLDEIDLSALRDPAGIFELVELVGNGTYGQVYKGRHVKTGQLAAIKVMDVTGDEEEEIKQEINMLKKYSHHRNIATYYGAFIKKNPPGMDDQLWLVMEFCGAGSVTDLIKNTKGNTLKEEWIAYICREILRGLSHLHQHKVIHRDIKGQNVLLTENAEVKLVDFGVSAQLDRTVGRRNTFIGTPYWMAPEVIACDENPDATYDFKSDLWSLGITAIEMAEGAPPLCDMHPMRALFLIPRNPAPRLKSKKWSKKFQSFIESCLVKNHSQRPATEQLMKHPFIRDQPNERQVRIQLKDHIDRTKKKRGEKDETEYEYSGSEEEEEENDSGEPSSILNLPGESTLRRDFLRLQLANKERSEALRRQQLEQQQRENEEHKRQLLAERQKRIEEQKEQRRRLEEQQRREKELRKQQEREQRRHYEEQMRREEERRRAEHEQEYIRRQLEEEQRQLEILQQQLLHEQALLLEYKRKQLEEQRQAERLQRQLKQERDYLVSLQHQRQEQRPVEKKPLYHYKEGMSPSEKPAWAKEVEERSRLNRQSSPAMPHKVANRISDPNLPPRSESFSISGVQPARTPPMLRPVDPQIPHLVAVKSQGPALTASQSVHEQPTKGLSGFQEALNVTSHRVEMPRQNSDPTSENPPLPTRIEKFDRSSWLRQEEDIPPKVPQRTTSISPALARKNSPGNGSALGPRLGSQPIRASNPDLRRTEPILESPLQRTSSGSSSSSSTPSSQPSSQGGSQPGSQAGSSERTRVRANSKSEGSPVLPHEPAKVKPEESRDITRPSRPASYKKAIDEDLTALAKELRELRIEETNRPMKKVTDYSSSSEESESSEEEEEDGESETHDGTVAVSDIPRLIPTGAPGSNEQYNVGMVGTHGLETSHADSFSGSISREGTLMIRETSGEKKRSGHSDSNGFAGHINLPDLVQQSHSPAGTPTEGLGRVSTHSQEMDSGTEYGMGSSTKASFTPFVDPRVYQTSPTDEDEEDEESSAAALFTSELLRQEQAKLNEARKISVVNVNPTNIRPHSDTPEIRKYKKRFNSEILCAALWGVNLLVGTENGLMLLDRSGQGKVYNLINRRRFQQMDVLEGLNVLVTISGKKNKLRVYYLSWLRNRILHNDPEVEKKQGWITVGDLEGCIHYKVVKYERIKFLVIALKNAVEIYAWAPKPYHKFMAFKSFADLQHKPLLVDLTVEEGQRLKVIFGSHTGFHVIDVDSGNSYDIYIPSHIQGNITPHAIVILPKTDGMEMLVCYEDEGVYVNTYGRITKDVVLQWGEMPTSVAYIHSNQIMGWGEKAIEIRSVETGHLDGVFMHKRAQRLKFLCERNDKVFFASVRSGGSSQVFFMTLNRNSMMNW

Measured: % residual kinase activity

Chain of Mitogen-activated protein kinase 14 (Homo sapiens) (Q16539 whole entry): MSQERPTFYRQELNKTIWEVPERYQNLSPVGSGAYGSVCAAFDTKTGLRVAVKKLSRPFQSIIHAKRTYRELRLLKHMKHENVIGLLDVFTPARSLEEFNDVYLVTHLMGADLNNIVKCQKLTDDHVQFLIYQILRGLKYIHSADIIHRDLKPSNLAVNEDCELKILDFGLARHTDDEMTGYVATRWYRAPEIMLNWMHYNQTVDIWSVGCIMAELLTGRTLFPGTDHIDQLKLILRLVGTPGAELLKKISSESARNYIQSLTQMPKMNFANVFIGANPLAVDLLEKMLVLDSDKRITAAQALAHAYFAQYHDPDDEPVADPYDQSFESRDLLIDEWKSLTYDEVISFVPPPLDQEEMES

CN1CCN(c2cnc3c(C4CCN(C(=O)c5ccc(OC(F)(F)F)cc5N)CC4)ncnc3c2)CC1 [BAY-885]
inactive: [1] 113% | [2] 101% | [3] 101% | [4] 94% | [5] 115% | [6] 106% | [7] 103% | [8] 112% | [9] 93% | [10] 107% | [11] 103% | [12] 107% | [13] 100% | [14] 106% | [15] 89%
